Data published in PMC6792352, “Limited Chemical Structural Diversity Found to Modulate Thyroid Hormone Receptor in the Tox21 Chemical Library” (Environmental Health Perspectives, 2019).
Structures can show the parent of a compound that is named as a salt.

Test: in vitro
Conditions: rat, gh3-tre-luc cells

| Compound | CC50 at 24 h (AC50 (uM) modified / 1000) [µM] | further results |
| --- | --- | --- |
| COC(C)(C)CCCC(C)CC=O (stereo not drawn) [7-Methoxy-3,7-dimethyloctanal] | > 90 | – |
| ClC1=C(Cl)[C@]2(Cl)[C@@H]3[C@H]4C[C@H]([C@@H]5O[C@H]45)[C@@H]3[C@@]1(Cl)C2(Cl)Cl [Endrin] | – | CC50 at 24 h (AC50 (uM) modified / 1000, Tox21_110001=Tox21_111120, viability, 1 nM T3 present, 24 h): 34.4 µM; CC50 at 24 h (AC50 (uM) modified / 1000, Tox21_110001=Tox21_300613, viability, 1 nM T3 present, 24 h): > 90 µM |
| CCCCCCCCCCCCCCC1CO1 (stereo not drawn) [1,2-Epoxyhexadecane] | > 90 | – |
| FC(F)(F)c1cccc(Cl)c1 [3-Chlorobenzotrifluoride] | > 90 | – |
| O=C(O)c1ccc(OCCCOc2ccc(C(=O)O)cc2)cc1 [1,3-Bis(4-carboxyphenoxy)propane] | > 50 | – |
| OCCCCCCCl [6-Chlorohexan-1-ol] | > 100 | – |
| CNC(=O)ON=C(C)SC [Methomyl] | > 90 | – |
| Nc1nc(N)c2nc(CNc3ccc(C(=O)N[C@@H](CCC(=O)O)C(=O)O)cc3)cnc2n1 [4-Aminofolic acid] | > 50 | – |
| NC(=O)CI [Iodoacetamide] | > 90 | – |
| CS(=O)(=O)OCCCCOS(C)(=O)=O [Busulfan] | > 90 | – |
| CC(=O)O[C@H]1C[C@@H]2CC[C@@H]3[C@H](CC[C@@]4(C)[C@H]3C[C@H]([N+]3(C)CCCCC3)[C@@H]4OC(C)=O)[C@@]2(C)C[C@@H]1N1CCCCC1 [Vecuronium bromide] | > 50 | – |
| O=C(Cn1c(=O)sc2ccc(Cl)cc21)N1CCN(CCO)CC1 [Tiaramide hydrochloride] | > 50 | – |
| CC12CCC(CC1)C(C)(C)O2 [1,8-Cineol] | > 90 | – |
| C1CN(P2(N3CC3)=NP(N3CC3)(N3CC3)=NP(N3CC3)(N3CC3)=N2)CCO1 (stereo not drawn) [Fotretamine] | > 50 | – |
| COc1ccc(N)c(C)c1 [4-Methoxy-2-methylaniline] | > 90 | – |
| CC(C)[C@@H](N)C(=O)O [D-Valine] | > 50 | – |
| CN1CC(=O)NC1=N [Creatinine] | > 50 | – |
| Cn1c(=O)c2[nH]c(Br)nc2n(C)c1=O [8-Bromotheophylline] | > 50 | – |
| O=C1CCCCCN1SSN1CCCCCC1=O [1,1'-Disulfanediyldiazepan-2-one] | 53.9 | – |
| CCOC(=O)Cc1ccccc1 [Ethyl phenylacetate] | – | CC50 at 24 h (AC50 (uM) modified / 1000, Tox21_110001=Tox21_300810, viability, 1 nM T3 present, 24 h): > 90 µM |
| Cc1cccc(C(=O)O)c1 [3-Methylbenzoic acid] | > 90 | – |
| CCCCCCCCCCCCc1ccc(O)cc1 [4-Dodecylphenol] | 15.6 | – |

| Compound | CC50 at 24 h (AC50 (uM) modified / 1000) [µM] | further results |
| --- | --- | --- |
| Nc1ccc(NCCO)c([N+](=O)[O-])c1 [HC Red 3] | 52.7 | – |
| O=C(CCCN1CCN(c2ccccn2)CC1)c1ccc(F)cc1 [Azaperone] | > 50 | – |
| Cc1[nH]nc2c1N=C(c1ccccc1Cl)c1cc([N+](=O)[O-])ccc1N2 [PharmaGSID_48505] | 39.4 | – |
| CCCCOC(=O)[C@@H](C)Oc1ccc(Oc2ccc(C#N)cc2F)cc1 [Cyhalofop-butyl] | – | CC50 at 24 h (AC50 (uM) modified / 1000, Tox21_110001=Tox21_301029, viability, 1 nM T3 present, 24 h): > 90 µM |
| CC(=O)Oc1ccc(C(c2ccc(OC(C)=O)cc2)c2ccccn2)cc1 [Bisacodyl] | > 90 | – |
| O=NN1CCCCCCC1 [Nitrosoheptamethyleneimine] | > 90 | – |
| CC(C)(CCl)C(=O)Cl [3-Chloro-2,2-dimethylpropanoyl chloride] | > 90 | – |
| CC1(C)[C@@H]2CC[C@@]1(C)C(=O)C2 [D-Camphor] | > 90 | – |
| O=S(=O)(c1ccc(Cl)cc1)c1ccc(Cl)cc1 [4,4'-Dichlorodiphenyl sulfone] | > 90 | – |
| COC(=O)CS [Methyl thioglycolate] | > 90 | – |
| COc1cc(N)ccc1C [3-Methoxy-4-methylaniline] | > 90 | – |
| Clc1cccc2ccccc12 [1-Chloronaphthalene] | – | CC50 at 24 h (AC50 (uM) modified / 1000, Tox21_110001=Tox21_200823, viability, 1 nM T3 present, 24 h): > 90 µM |
| CC[C@@H]([C@H](C)O)n1ncn(-c2ccc(N3CCN(c4ccc(OC[C@@H]5CO[C@@](Cn6cncn6)(c6ccc(F)cc6F)C5)cc4)CC3)cc2)c1=O [Posaconazole] | 26.4 | – |
| O=c1[nH][nH]c(=O)c2cc([N+](=O)[O-])ccc12 [6-Nitrophthalhydrazide] | > 90 | – |
| CC1(C)S[C@@H]2[C@H](NC(=O)C(C(=O)O)c3ccccc3)C(=O)N2[C@H]1C(=O)O (stereo partly drawn) [Carbenicillin disodium] | > 50 | – |
| c1cc(CN2CCCCC2)cc(OCCCNc2nc3ccccc3s2)c1 [Zolantidine dimaleate] | 8.26 | – |
| CC1CN(c2ccccc2)NC1=O (stereo not drawn) [4-Methyl-1-phenylpyrazolidin-3-one] | > 90 | – |
| CC(O)CN(CC(C)O)CC(C)O (stereo not drawn) [Triisopropanolamine] | – | CC50 at 24 h (AC50 (uM) modified / 1000, Tox21_110001=Tox21_201952, viability, 1 nM T3 present, 24 h): > 90 µM |
| O=C(O)c1cc2ccccc2cc1O [3-Hydroxy-2-naphthoic acid] | > 90 | – |
| C=C(C)C(=O)OCC[N+](C)(C)C [(2-(Methacryloyloxy)ethyl)trimethylammonium chloride] | 62.4 | – |
| CC(=O)OCC(C)C [Isobutyl acetate] | > 90 | – |
| CN [Methylammonium nitrate] | > 100 | – |

| Compound | CC50 at 24 h (AC50 (uM) modified / 1000) [µM] | further results |
| --- | --- | --- |
| CO/N=C(\C(=O)N[C@@H]1C(=O)N2C(C(=O)OCOC(=O)C(C)(C)C)=C(/C=C\c3scnc3C)CS[C@H]12)c1csc(N)n1 [Cefditorin pivoxil] | > 50 | – |
| CC(=O)C(C)=O [2,3-Butanedione] | > 90 | – |
| COC(=O)[C@H]1CC[C@H](C(=O)OC)CC1 [Dimethyl trans-cyclohexane-1,4-dicarboxylate] | > 90 | – |
| CCCCN(CCC(=O)OCC)C(C)=O [Ethyl 3-(N-butylacetamido)propionate] | > 90 | – |
| O=C(O)c1cc(Br)c(O)c(Br)c1 [3,5-Dibromo-4-hydroxybenzoic acid] | > 90 | – |
| O=C1c2c(O)cccc2[C@H]([C@@H]2O[C@H](CO)[C@@H](O)[C@H](O)[C@H]2O)c2cc(CO)cc(O)c21 [Aloin A] | > 50 | – |
| Cc1cccn2c(=O)c(-c3nnn[nH]3)cnc12 [Pemirolast potassium] | > 50 | – |
| C=CC(=O)OCCOCC(CC)(COCCOC(=O)C=C)COCCOC(=O)C=C [Trimethylolpropane ethoxylate triacrylate] | 23.1 | – |
| COP(=S)(NC(C)C)Oc1ccc(C)cc1[N+](=O)[O-] (stereo not drawn) [Amiprofos-methyl] | – | CC50 at 24 h (AC50 (uM) modified / 1000, Tox21_110001=Tox21_301206, viability, 1 nM T3 present, 24 h): > 90 µM |
| COc1ccc([N+](=O)[O-])cc1N [2-Methoxy-5-nitroaniline] | > 90 | – |
| Nc1ccc(-c2ccc(N)c(Cl)c2)cc1Cl [3,3'-Dichlorobenzidine] | – | CC50 at 24 h (AC50 (uM) modified / 1000, Tox21_110001=Tox21_202224, viability, 1 nM T3 present, 24 h): 26.1 µM |
| Cc1cc2c(cc1C(F)(F)F)N(C(=O)Nc1ccc(Oc3cccnc3C)nc1)CC2 [SB243213A] | 69.4 | – |
| ClC(Cl)(Cl)c1ccc(C(Cl)(Cl)Cl)cc1 [1,4-Bis(trichloromethyl)benzene] | > 90 | – |
| Cc1ccc(C(=O)O)o1 [5-Methyl-2-furancarboxylic acid] | > 90 | – |
| CN(C)CC/C=C1/c2ccccc2Sc2ccc(Cl)cc21 [Chlorprothixene] | 11 | – |
| Cc1ccc(N)cc1 [4-Methylaniline hydrochloride] | – | CC50 at 24 h (AC50 (uM) modified / 1000, Tox21_110001=Tox21_200517, viability, 1 nM T3 present, 24 h): > 90 µM |
| CCCC(CCC)C(=O)OC1C[C@H]2CC[C@@H](C1)[N+]2(C)C (stereo partly drawn) [Anisotropine methylbromide] | > 50 | – |
| CCCC(=O)c1cc(O)c(O)cc1O [2',4',5'-Trihydroxybutyrophenone] | > 90 | – |
| CCOC(=O)NC(C)(C)Cc1ccc(Cl)cc1 [Cloforex] | – | CC50 at 24 h (AC50 (uM) modified / 1000, Tox21_110001=Tox21_113271, viability, 1 nM T3 present, 24 h): > 50 µM |
| N#Cc1cc(Br)c(O)c(Br)c1 [Bromoxynil] | > 90 | – |
| CCCCP(CCCC)CCCC [Tributylphosphine] | > 90 | – |
